{"source": "patent US11572590B2", "about": "“Methods for evaluating tumor cell spheroids using 3D microfluidic cell culture device” (Dana-Farber Cancer Institute, Inc., priority 2017, dated 2023)", "key": {"[1]": {"molecular_target": "off-target kinases (Homo sapiens, UniProt P05771)", "sequence (P05771 1-673 isoform P05771-2)": "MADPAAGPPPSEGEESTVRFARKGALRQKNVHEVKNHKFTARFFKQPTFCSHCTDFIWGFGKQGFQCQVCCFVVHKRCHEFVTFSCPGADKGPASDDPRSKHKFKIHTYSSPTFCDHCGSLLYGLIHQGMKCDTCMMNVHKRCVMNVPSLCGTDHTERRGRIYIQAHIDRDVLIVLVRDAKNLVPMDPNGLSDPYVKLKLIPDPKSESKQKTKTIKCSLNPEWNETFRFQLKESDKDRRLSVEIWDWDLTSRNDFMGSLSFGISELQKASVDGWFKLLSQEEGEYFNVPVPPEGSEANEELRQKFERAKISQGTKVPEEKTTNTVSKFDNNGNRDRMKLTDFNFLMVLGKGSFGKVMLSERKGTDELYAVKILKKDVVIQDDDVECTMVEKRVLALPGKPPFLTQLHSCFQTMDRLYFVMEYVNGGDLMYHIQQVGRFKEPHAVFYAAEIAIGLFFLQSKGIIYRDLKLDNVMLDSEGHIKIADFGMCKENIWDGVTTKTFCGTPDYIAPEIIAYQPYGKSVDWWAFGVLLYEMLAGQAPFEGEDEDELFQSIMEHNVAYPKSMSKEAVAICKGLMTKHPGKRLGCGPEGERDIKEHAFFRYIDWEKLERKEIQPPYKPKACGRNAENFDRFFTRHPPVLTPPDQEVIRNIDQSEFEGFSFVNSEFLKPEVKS", "assay": "SelectScreen Kinase Profiling, single point inhibition and IC50 for off-target kinases", "type": "biochemical", "parameters": "other: PRKCB2 (PKC beta II); ZLYTE; ATP Km app; 1000 μM", "conditions": "PRKCB2 (PKC beta II), ZLYTE, ATP Km app", "protocol": "(§1) Biochemical single point inhibition and IC50 concentrations for TBK1, IKKε (IKBKE), and off-target kinases were determined at ThermoFisher Scientific using SelectScreen Kinase Profiling Services (Madison, Wis., USA) (Tables S4A and S4B-1-7). To determine cellular potency, the human colorectal cancer carcinoma cell line HCT116 (ATCC, Manassas, Va.) was maintained in T175 flasks in complete RPMI medium; RPMI 1640 supplemented with 10% FBS, 1× Penicillin-Streptomycin solution and 1×MEM (non-essential amino acids). HCT116 cells were grown to 90-95% confluency in T175 flasks containing complete RPMI medium and transfected in bulk using Lipofectamine 2000 (Invitrogen, Carlsbad, Calif.) with 70 μg of ISG54-luciferase reporter plasmid (Elim Biopharmaceuticals Inc., Hayward, Calif.). The reporter plasmid contains a luciferase gene expression cassette under the transcriptional regulation of the promoter of the human interferon stimulated gene 54 (ISG54). Transfection of the cells was allowed to take place for 6 hours, after which the cells were harvested by treatment with 0.25% trypsin EDTA (Corning Inc., Corning, N.Y.). Trypsinized cells were added to 384-well poly-d-lysine treated black clear bottom tissue culture assay plates (Greiner Bio-One GmbH, Kremsmünster, Austria) at a density of 20,000 cells/well in 80 μL of complete RPMI medium and incubated overnight. After 16-18 hours post-transfection, the assay plates were washed with PBS (Corning Inc., Corning, N.Y.), followed by addition of 80 μL/well of serum-free RPMI 1640 medium containing 1× Penicillin-Streptomycin solution, 1×MEM and 350 nL of DMSO or titrations of Compound 1. […] The assay plates were incubated for 5 hours at 37° C., followed by addition of One-Glo luciferase firefly reagent (Promega, Madison, Wis.) at 1:1 volume/well and luminescence was measured in an EnVision Multilabel Plate Reader (PerkinElmer, Santa Clara, Calif.). The EC50 values were calculated from the fit of the dose-response curves to a four-parameter equation. […]"}, "[2]": {"test_system": "human CD4+ and CD8+ T cells", "assay": "IFNγ secretion by anti-CD3/anti-CD28 stimulated T cells", "type": "cell-based", "conditions": "dose-titration, 96 hours", "protocol": "Freshly isolated human CD4+ and CD8+ T cells were obtained from AllCells (Alameda, Calif., USA). Cells were spun down and resuspended in serum free Xvivo15 media (Lonza Walkersville, Inc., Chicago, Ill., USA) supplemented with 5 ng/mL […] and incubated overnight at 37° C. Cells were plated on anti-CD3 coated plates (5 μg/mL OKT3, eBioscience, Dallas, Tex., USA, overnight) with 2 μg/mL anti-CD28 (eBioscience, Dallas, Tex., USA). Cells are treated in replicate plates with a dose-titration of Compound 1 for 24 hours for IL-2 and 96 hours for IFNγ. IL-2 and IFNγ in the supernatant were measured using single- or multi-plex immunoassay (Mesoscale Discovery, Rockville, Md., USA). Jurkat T cell leukemia cells (clone E61 obtained from ATCC) plated on anti-CD3 coated plates were treated with a dose titration of Compound 1 for 24 hours. IL-2 in the supernatant was measured as described above."}, "[3]": {"molecular_target": "T1, off-target kinases (Homo sapiens, UniProt O43318)", "T1 sequence (O43318 1-606)": "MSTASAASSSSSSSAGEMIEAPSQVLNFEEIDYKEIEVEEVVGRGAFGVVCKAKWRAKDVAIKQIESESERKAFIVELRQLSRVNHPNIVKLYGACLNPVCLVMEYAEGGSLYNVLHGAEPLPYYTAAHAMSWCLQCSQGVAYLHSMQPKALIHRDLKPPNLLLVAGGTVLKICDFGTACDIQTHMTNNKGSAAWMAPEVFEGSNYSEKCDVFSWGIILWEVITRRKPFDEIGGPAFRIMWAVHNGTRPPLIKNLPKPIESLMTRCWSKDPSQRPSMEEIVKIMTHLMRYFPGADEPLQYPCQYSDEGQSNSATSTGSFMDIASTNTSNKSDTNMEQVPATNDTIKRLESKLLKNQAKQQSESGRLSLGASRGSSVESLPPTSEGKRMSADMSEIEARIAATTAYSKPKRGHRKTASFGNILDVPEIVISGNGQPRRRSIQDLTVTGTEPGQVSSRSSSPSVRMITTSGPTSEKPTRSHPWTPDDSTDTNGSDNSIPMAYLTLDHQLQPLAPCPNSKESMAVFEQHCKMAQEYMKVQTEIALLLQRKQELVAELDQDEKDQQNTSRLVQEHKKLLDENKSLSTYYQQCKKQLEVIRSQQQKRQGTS", "assay": "SelectScreen Kinase Profiling, single point inhibition and IC50 for off-target kinases", "type": "biochemical", "parameters": "other: MAP3K7/MAP3K7IP1 (TAK1-TAB1); 1000 μM; fused on or other part: TAB1 (MAP3K7IP1, Q15750), either fused to TAK1 or present as a separate partner chain", "conditions": "MAP3K7/MAP3K7IP1 (TAK1-TAB1); LanthaScreen Binding; 1000 μM", "protocol": "as §1, with “(ISG54).” for “(ISG54). Transfection of the cells was allowed to take place for 6 hours, after which the cells were harvested by treatment with 0.25% trypsin EDTA (Corning Inc., Corning, N.Y.). Trypsinized cells were added to 384-well poly-d-lysine treated black clear bottom tissue culture assay plates (Greiner Bio-One GmbH, Kremsmünster, Austria) at a density of 20,000 cells/well in 80 μL of complete RPMI medium and incubated overnight. After 16-18 hours post-transfection, the assay plates were washed with PBS (Corning Inc., Corning, N.Y.), followed by addition of 80 μL/well of serum-free RPMI 1640 medium containing 1× Penicillin-Streptomycin solution, 1×MEM and 350 nL of DMSO or titrations of Compound 1.”"}, "[4]": {"molecular_target": "off-target kinases (Homo sapiens, UniProt P07948)", "sequence (P07948 1-491 isoform P07948-2)": "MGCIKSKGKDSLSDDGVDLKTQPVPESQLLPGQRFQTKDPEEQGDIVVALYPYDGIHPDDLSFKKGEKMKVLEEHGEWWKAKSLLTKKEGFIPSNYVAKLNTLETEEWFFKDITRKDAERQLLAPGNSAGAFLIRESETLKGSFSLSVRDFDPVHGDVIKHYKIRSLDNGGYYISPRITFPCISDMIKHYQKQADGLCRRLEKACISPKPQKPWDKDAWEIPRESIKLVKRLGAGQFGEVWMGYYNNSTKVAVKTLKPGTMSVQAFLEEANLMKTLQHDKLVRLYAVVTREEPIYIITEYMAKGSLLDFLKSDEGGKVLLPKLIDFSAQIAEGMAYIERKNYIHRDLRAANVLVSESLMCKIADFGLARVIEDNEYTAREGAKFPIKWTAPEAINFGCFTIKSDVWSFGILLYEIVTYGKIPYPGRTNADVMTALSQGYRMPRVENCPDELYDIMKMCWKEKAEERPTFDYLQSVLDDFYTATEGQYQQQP", "assay": "SelectScreen Kinase Profiling, single point inhibition and IC50 for off-target kinases", "type": "biochemical", "parameters": "other: LYN B; 1000 μM; ATP Km app; ZLYTE", "conditions": "LYN B, ATP Km app, ZLYTE", "protocol": "as §1"}}, "note": "Where two headings read alike, the source gives them in different places."}
{"smiles": "N#Cc1cc(-c2ncnc(Nc3ccc(N4CCN(C5COC5)CC4)cc3)n2)ccc1OC1CCOCC1", "note": "[Compound 1, 5-(4-((4-(4-(oxetan-3-yl)piperazin-1-yl)phenyl)amino)-1,3,5-triazin-2-yl)-2-((tetrahydro-2H-pyran-4-yl)oxy)benzonitrile]", "values": [{"measurement": "inhibition", "setting": "[1]; read-out: % Inhibition 1", "result": 12, "unit": "%"}, {"measurement": "inhibition", "setting": "[1]; read-out: % Inhibition 2", "result": 8, "unit": "%"}, {"measurement": "inhibition", "setting": "[1]; read-out: % Inhibition Avg", "result": 10, "unit": "%"}, {"measurement": "secretion of IFN-γ from purified CD4+ and CD8+ T cells", "setting": "[2]", "result": "enhanced secretion"}, {"measurement": "% Inhibition 1", "setting": "[3]", "result": 22, "unit": "%"}, {"measurement": "inhibition", "setting": "[4]; read-out: % Inhibition 1", "result": 56, "unit": "%"}, {"measurement": "inhibition", "setting": "[4]; read-out: % Inhibition 2", "result": 50, "unit": "%"}, {"measurement": "inhibition", "setting": "[4]; read-out: % Inhibition Avg", "result": 53, "unit": "%"}]}
